Assay results published in ChEMBL document CHEMBL4673350 (Bioorg Med Chem, 2021).
Values after ≈ are worked out from the molar mass of the structure shown.

Tests used:
[1] = Inhibition of recombinant N-terminal His/MBP-tagged NDM-1 (unknown origin) expressed in Escherichia coli BL21 (DE3) measured immediately by spectrophotometry
[2] = system: Escherichia coli DH5[alpha]; settings: dose 32.0 mg/L
[3] = system: Escherichia coli DH5[alpha]; test: Inhibition of Escherichia coli DH5alpha NDM-1 assessed as MIC of meropenem at 8 mg/L by CLSI based microdilution method
Escherichia coli = test: microbe, parasite or virus in culture; settings: DH5[alpha]
Description: Antibacterial activity against Escherichia coli DH5alpha assessed as MIC of meropenem at 32 mg/L by CLSI based broth microdilution method (Rvb < 0.25 mg/L)

IC50 [1] [µM]	MIC [2] [µg/mL]	MIC [3] [µg/mL]	MIC (Escherichia coli) [µg/mL]	SMILES
6.9	2 (≈ 8.65 µM)	4	–	C[C@H](CS)C(=O)N1CCCC[C@@H]1C(=O)O
11.1	–	–	–	C[C@H](CS)C(=O)N1CCC(C(N)=O)CC1
21.8	4 (≈ 18.4 µM)	–	–	C[C@H](CS)C(=O)N1CCC[C@@H]1C(=O)O [D-CAPTOPRIL]
19.8	–	–	–	C[C@H](CS)C(=O)N1CCC(CC(=O)O)CC1
28.4	–	–	–	C[C@H](CS)C(=O)N1CCC[C@H](C(=O)O)C1
> 300	–	–	–	C[C@H](CS)C(=O)N1Cc2ccccc2C[C@@H]1C(=O)O
4.9	2 (≈ 8.65 µM)	4	–	C[C@H](CS)C(=O)N1CCC(C(=O)O)CC1
–	< 0.25	< 0.25	< 0.25	O=C(O)CN(CCN(CC(=O)O)CC(=O)O)CC(=O)O [EDETIC ACID]
27.9	–	–	–	C[C@H](CS)C(=O)N1CCC(CC(N)=O)CC1
4.6	4 (≈ 14.3 µM)	8	–	C[C@H](CS)C(=O)N1CCc2ccccc2[C@@H]1C(=O)O
20.4	–	–	–	C[C@H](CS)C(=O)N1CCCCC[C@@H]1C(=O)O
75	–	–	–	O=C(O)[C@H]1CCCN1C(=O)C(CS)CS
